From US20180099937A1, “NOVEL ARYL-CYANOGUANIDINE COMPOUNDS” (Bayer Pharma Aktiengesellschaft, priority 2015, published 2018)

biological target: SMYD2 (Homo sapiens, UniProt Q9NRG4); test: Scintillation Proximity Assay (SPA) for detection of SMYD2 enzymatic inhibition; assay type: biochemical; design: The SMYD2 full length enzyme was produced in-house by expression (with an N-terminal 6× His tag) in E. coli; 6xHis (N); made in house; host or cells: E. coli; conditions: SMYD2 full length enzyme, p53 Peptide substrate 1.0 μM, 3H-SAM 60 nM; read-out: IC50 [mol/l] (SPA Assay)
Text: 1.1 Scintillation Proximity Assay (SPA) for Detection of SMYD2 Enzymatic Inhibition
SMYD2 inhibitory activities of the compounds described in the present invention were quantified using a scintillation proximity assay (SPA) which measures methylation by the enzyme of the synthetic, biotinylated peptide Btn-Ahx-[…]—Amid×TFA (Biosyntan) derived from p53 and referred to from here on as “p53 Peptide”. The SMYD2 full length enzyme was produced in-house by expression (with an N-terminal 6× His tag) in E. coli and purification by affinity chromatography on a Ni-NTA Sepharose column followed by a size exclusion chromatography step on a Superdex 200 16/60 column (GE Healthcare).
In a typical assay 11 different concentrations of each compound (0.1 nM, 0.33 nM, 1.1 nM, 3.8 nM, 13 nM, 44 nM, 0.15 μM, 0.51 μM, 1.7 μM, 5.9 μM and 20 μM) were tested in duplicate within the same microtiter plate. To this end, 100-fold concentrated compound solutions (in DMSO) were previously prepared by serial dilution (1:3.4) of 2 mM stocks in a clear low volume 384-well source microliter plate (Greiner Bio-One), from which 50 nl of compound solutions were transferred into a white low volume test microtiter plate from the same supplier. Subsequently, 2.5 μl SMYD2 in aqueous assay buffer [50 mM Tris/HCl pH 9.0 (AppliChem), 1 mM dithiothreitol (DTT, Sigma), 0.01% (w/v) bovine serum albumine (BSA, Sigma), 0.0022% (v/v) Pluronic (Sigma)] were added to the compounds in the test plate to a final enzyme concentration of —typically—3 nM (this parameter was adjusted depending on the activity of the enzyme lot in order to be within the linear dynamic range of the assay). The samples were then incubated for 15 min at 22° C. to allow pre-equilibration of the putative enzyme-inhibitor complexes before the start of the methylation reaction, which was initiated by the addition of 2.5 μl 2-fold concentrated solution (in assay buffer) of titriated S-Adenosyl-L-Methionine (3H-SAM, Perkin Elmer, final concentration: 60 nM) and p53 Peptide substrate (final concentration: 1.0 μM). The resulting mixture (5 μl final volume) was shortly centrifuged (2 min., 1500 rpm) and incubated at 22° C. during 30 min. Thereupon the reaction was stopped by adding 3 μl of Streptavidin PS SPA imaging beads (Perkin Elmer, final concentration of 3.12 μg/μl) and “cold” SAM (AK Scientific, 25 μM final concentration) for non-specific binding reduction. Plates containing the stopped reaction were sealed with transparent adhesive foil (Perkin Elmer), centrifuged (2 min., 1500 rpm), and further incubated for —at least—1 h at RT (or overnight at 4° C.) in order to allow the SPA signals to develop. Subsequently, the amount of product was evaluated by measuring the energy transfer from the β-particles emitted by the 3H-labeled substrate to the Europium scintillator co-polymerized in the polystyrene matrix of the PS imaging beads, using the standard settings for this purpose of a Viewlux (Perkin-Elmer) CCD plate imaging device (emission filter 613/55 (IFP). The resulting scintillation counts were taken as indicator for the amount of methylated peptide per well. The data were normalised using two sets of control wells (typically 16 each) for high−(=enzyme reaction with DMSO instead of test compound=0% =Minimum inhibition) and low−(=all assay components without enzyme=100% =Maximum inhibition) SMYD2 activity. IC50 values were calculated by fitting the normalized inhibition data to a 4-parameter logistic equation using the “Screener” analysis software from Genedata.

Sequence of SMYD2 (Q9NRG4 whole entry): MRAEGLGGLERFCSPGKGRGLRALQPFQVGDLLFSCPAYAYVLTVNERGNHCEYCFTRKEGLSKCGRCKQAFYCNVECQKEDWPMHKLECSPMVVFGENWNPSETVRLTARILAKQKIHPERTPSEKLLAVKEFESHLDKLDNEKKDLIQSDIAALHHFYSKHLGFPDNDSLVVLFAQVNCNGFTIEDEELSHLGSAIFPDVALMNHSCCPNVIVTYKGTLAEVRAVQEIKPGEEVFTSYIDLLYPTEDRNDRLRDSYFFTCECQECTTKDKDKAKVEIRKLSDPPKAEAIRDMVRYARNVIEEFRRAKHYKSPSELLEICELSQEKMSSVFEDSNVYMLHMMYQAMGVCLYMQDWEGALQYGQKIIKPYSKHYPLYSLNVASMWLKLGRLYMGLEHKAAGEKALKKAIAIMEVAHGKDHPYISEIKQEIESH

Going from CCN(C(=O)[C@H]1CCCN1)C1CN(/C(=N\C#N)Nc2cccc(OC(F)F)c2F)N=C1c1ccc(Cl)c(Cl)c1 (single isomer, unassigned) [Example 13.2, N-[1-{N′-Cyano-N-[3-(difluoromethoxy)-2-fluorophenyl]carbamimidoyl}-3-(3,4-dichlorophenyl)-4,5-dihydro-1H-pyrazol-4-yl]-N-ethyl-D-prolinamide] to CCN(C(=O)[C@H]1CCCN1)C1CN(/C(=N\C#N)Nc2cccc(OC(F)(F)F)c2)N=C1c1ccc(Cl)c(Cl)c1 (single isomer, unassigned) [Example 17.1, N-[1-{N′-Cyano-N-[3-(trifluoromethoxy)phenyl]carbamimidoyl}-3-(3,4-dichlorophenyl)-4,5-dihydro-1H-pyrazol-4-yl]-N-ethyl-D-prolinamide], the IC50 falls from 268 nM to 21 nM (13-fold).

First: CCN(C(=O)[C@H]1CCCN1)C1CN(/C(=N\C#N)Nc2cccc(OC(F)(F)F)c2)N=C1c1ccc(Cl)c(Cl)c1 (single isomer, unassigned) [Example 17.2, N-[1-{N′-Cyano-N-[3-(trifluoromethoxy)phenyl]carbamimidoyl}-3-(3,4-dichlorophenyl)-4,5-dihydro-1H-pyrazol-4-yl]-N-ethyl-D-prolinamide]
Second: CCN(C(=O)[C@H]1CCCN1)C1CN(/C(=N\C#N)Nc2ccc(F)c(OC(F)(F)F)c2)N=C1c1ccc(Cl)c(Cl)c1 (single isomer, unassigned) [Example 22.2, N-[1-{N′-Cyano-N-[4-fluoro-3-(trifluoromethoxy)phenyl]carbamimidoyl}-3-(3,4-dichlorophenyl)-4,5-dihydro-1H-pyrazol-4-yl]-N-ethyl-D-prolinamide]
The IC50 of the first is 4.7-fold higher: 1380 nM for the first, 296 nM for the second. The second is the more potent here.

Going from CCN(C(=O)[C@H]1CCCN1)C1CN(/C(=N\C#N)Nc2cc(F)cc(OC(F)(F)F)c2)N=C1c1ccc(Cl)c(Cl)c1 (single isomer, unassigned) [Example 24.2, N-[1-{N′-Cyano-N-[3-fluoro-5-(trifluoromethoxy)phenyl]carbamimidoyl}-3-(3,4-diehlorophenyl)-4,5-dihydro-1H-pyrazol-4-yl]-N-ethyl-D-prolinamide] to CCN(C(=O)[C@H]1C[C@@H](F)CN1)C1CN(/C(=N\C#N)Nc2cc(F)cc(OC(F)(F)F)c2)N=C1c1ccc(Cl)c(Cl)c1 (single isomer, unassigned) [Example 25.1], the IC50 falls from 3950 nM to 248 nM (16-fold).

Compared with CCN(C(=O)[C@H]1C[C@@H](F)CN1)C1CN(/C(=N\C#N)Nc2cc(F)cc(OC(F)(F)F)c2)N=C1c1ccc(Cl)c(Cl)c1 (single isomer, unassigned) [Example 25.2], CCN(C(=O)[C@H]1CCCN1)C1CN(/C(=N\C#N)Nc2cc(C(F)(F)F)ccc2OC(F)(F)F)N=C1c1ccc(Cl)c(Cl)c1 (single isomer, unassigned) [Example 30.1, N-[1-{N′-Cyano-N-[2-(trifluoromethoxy)-5-(trifluoromethyl)phenyl]carbamimidoyl}-3-(3,4-dichlorophenyl)-4,5-dihydro-1H-pyrazol-4-yl]-N-ethyl-D-prolinamide] is lower in IC50: greater than 20000 nM for the first, 54.5 nM for the second.

First: CCN(C(=O)[C@H]1CCCN1)C1CN(/C(=N\C#N)Nc2cc(C(F)(F)F)ccc2OC(F)(F)F)N=C1c1ccc(Cl)c(Cl)c1 (single isomer, unassigned) [Example 30.2, N-[1-{N′-Cyano-N-[2-(trifluoromethoxy)-5-(trifluoromethyl)phenyl]carbamimidoyl}-3-(3,4-dichlorophenyl)-4,5-dihydro-1H-pyrazol-4-yl]-N-ethyl-D-prolinamide]
Second: CCN(C(=O)[C@H]1CCCN1)C1CN(/C(=N\C#N)Nc2cccc(CC(F)(F)F)c2)N=C1c1ccc(Cl)c(Cl)c1 (single isomer, unassigned) [Example 31.1, N-[1-{N′-Cyano-N-[3-(2,2,2-trifluoroethyl)phenyl]carbamimidoyl}-3-(3,4-dichlorophenyl)-4,5-dihydro-1H-pyrazol-4-yl]-N-ethyl-D-prolinamide]
The IC50 of the first is 46-fold higher: 1540 nM for the first, 33.6 nM for the second.

CCN(C(=O)[C@H]1CCCN1)C1CN(/C(=N\C#N)Nc2cccc(CC(F)(F)F)c2)N=C1c1ccc(Cl)c(Cl)c1 (single isomer, unassigned) [Example 31.2, N-[1-{N′-Cyano-N-[3-(2,2,2-trifluoroethyl)phenyl]carbamimidoyl}-3-(3,4-dichlorophenyl)-4,5-dihydro-1H-pyrazol-4-yl]-N-ethyl-D-prolinamide] and CCN(C(=O)[C@H]1CCN1)C1CN(/C(=N\C#N)Nc2cccc(OC(F)F)c2)N=C1c1ccc(Cl)c(C)c1 (single isomer, unassigned) [Example 36.2] are within 1.5-fold of each other in IC50: 211 nM for the first, 302 nM for the second.

Going from CCN(C(=O)[C@H]1CCCN1)C1CN(/C(=N\C#N)Nc2cccc(OC(F)F)c2)N=C1c1ccc(Cl)c(C)c1 (single isomer, unassigned) [Example 37.2, N-[3-(4-Chloro-3-methylphenyl)-1-{N′-cyano-N-[3-(difluoromethoxy)phenyl]carbamimidoyl}-4,5-dihydro-1H-pyrazol-4-yl]-N-ethyl-D-prolinamide] to CCN(C(=O)[C@H]1C[C@@H](F)CN1)C1CN(/C(=N\C#N)Nc2cccc(OC(F)F)c2)N=C1c1ccc(Cl)c(C)c1 (single isomer, unassigned) [Example 38.2], the IC50 falls from greater than 20000 nM to roughly 20000 nM. The second is the more potent here.

CCN(C(=O)[C@H]1C[C@@H](O)CN1)C1CN(/C(=N\C#N)Nc2cccc(OC(F)F)c2)N=C1c1ccc(Cl)c(C)c1 (single isomer, unassigned) [Example 39.1] gave an IC50 of 32.2 nM.
CCN(C(=O)[C@H]1C[C@@H](O)CN1)C1CN(/C(=N\C#N)Nc2cccc(OC(F)F)c2)N=C1c1ccc(Cl)c(C)c1 (single isomer, unassigned) [Example 39.2] and “(2R)-N-[3-(4-chlaro-3-methylphenyl)-1-{N′-cyano-N-[3-(difluoromethoxy)phenyl]carbamimidoyl}-4,5-dihydro-1H-pyrazol-4-yl]-N-ethylpiperidine-2-carboxamide [Example 46]” are within 1.5-fold of each other in IC50: 1640 nM for the first, 1500 nM for the second.
